Test results as given in patent publication US20250171463A1 (BIOGEN MA INC., priority 2022, published 2025).

Molecular target: T1, EBP (Homo sapiens, UniProt Q15125)
T1 construct: HEK293T cells were utilized as the source of EBP enzyme; endogenous in cells; host or cells: HEK293T
Assay: EBP Functional Assay (EBP immunoaffinity LC-MS assay)
Assay type: biochemical
Conditions: EBP enzyme from HEK293T cells; 30 min with inhibitor, then zymosterol-d5, 37° C., 4 h; percent conversion to dehydrolathosterol-d5 by LC-APCI MRM MS
Description: The EBP immunoaffinity (IA) LC-MS assay measures the potency of small molecule inhibitors of EBP by quantifying their concentration-dependent changes in the enzyme's substrate and product using liquid chromatography atmospheric pressure chemical ionization multiple reaction monitoring mass spectrometry (LC-APCI MRM MS). HEK293T cells were utilized as the source of EBP enzyme. The enzyme was incubated with the small molecule inhibitors at variable concentrations for 30 min. Deuterated form of EBP substrate, zymosterol-d5 (Avanti Polar Lipids, Cat #700068P-1 mg), was then added and the plate was incubated at 37° C. for 4 h. Finally, the sterol isomers were extracted and injected to LC-APCI MRM MS. MRM transition used for the quantification for both zymosterol and […] (substrate and product of EBP enzymatic reaction, respectively) is 372.3-203.2, CE 30 and DP 80 in positive ion mode. Percent conversion of the zymosterol-d5 to dehydrolathosterol-d5 was used to derive IC50 curves. Tasin-1 (1′-[(4-Methoxyphenyl)sulfonyl]-4-methyl-1,4′-bipiperidine, CAS 792927-06-1) was used as the reference small molecule inhibitor.
Percent conversion versus the compound concentration data were fit to the following 4-parameter logistic model to generate IC50 curves: […]

T1 sequence (Q15125 whole entry): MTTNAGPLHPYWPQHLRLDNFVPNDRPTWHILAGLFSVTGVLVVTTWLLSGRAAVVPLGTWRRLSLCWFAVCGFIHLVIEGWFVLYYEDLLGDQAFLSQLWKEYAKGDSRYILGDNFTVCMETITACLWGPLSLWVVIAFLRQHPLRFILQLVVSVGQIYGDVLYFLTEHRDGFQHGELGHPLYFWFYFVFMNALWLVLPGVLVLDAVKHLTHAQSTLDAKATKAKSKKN

| Structure (SMILES) | IC50 |
| --- | --- |
| CCSCCCN1CC2(C1)CN(S(=O)(=O)c1ccc(C(F)(F)F)nc1C)C2 [Example 183] | < 100 nM |
| O=S(=O)(c1ccc(C(F)(F)F)nc1C1CC1)N1CC2(CN(CC3COC3)C2)C1 [Example 209, 2-((2-cyclopropyl-6-(trifluoromethyl)pyridin-3-yl)sulfonyl)-6-(oxetan-3-ylmethyl)-2,6-diazaspiro[3.3]heptane] | 100 to 250 nM |
| Cc1nc(OC(F)F)ccc1S(=O)(=O)N1CC2(CN(C3CC4(COC4)C3)C2)C1 [Example 95, 2-((6-(difluoromethoxy)-2-methylpyridin-3-yl)sulfonyl)-6-(2-oxaspiro[3.3]heptan-6-yl)-2,6-diazaspiro[3.3]heptane] | 100 to 250 nM |
| O=S(=O)(c1ccc(OC(F)F)cc1)N1CCC2(CC1)CN(C1CCOCC1)CCO2 [Example 30, 9-((4-(Difluoromethoxy)phenyl)sulfonyl)-4-(tetrahydro-2H-pyran-4-yl)-1-oxa-4,9-diazaspiro[5.5]undecane] | 100 to 250 nM |
| Cc1cc(C(F)(F)F)cnc1S(=O)(=O)N1CC2(CN(C3CCOCC3)C2)C1 [Example 221, 2-((3-methyl-5-(trifluoromethyl)pyridin-2-yl)sulfonyl)-6-(tetrahydro-2H-pyran-4-yl)-2,6-diazaspiro[3.3]heptane] | 250 to 4000 nM |
| Cc1nc(C(F)(F)F)ccc1S(=O)(=O)N1CC2(CN(CC3CCOC(C)(C)C3)C2)C1 (centres unmarked) [Example 186] | 100 to 250 nM |
| O=S(=O)(c1cccnc1C(F)(F)F)N1CC2(CN(C3CCOCC3)C2)C1 [Example 162, 2-(tetrahydro-2H-pyran-4-yl)-6-((2-(trifluoromethyl)pyridin-3-yl)sulfonyl)-2,6-diazaspiro[3.3]heptane] | 250 to 4000 nM |
| Cn1nc(C(F)(F)F)cc1S(=O)(=O)N1CCC2(CCN(C3CCOCC3)C2)CC1 [Example 40] | < 100 nM |
| Cc1nc(C(F)(F)F)ccc1S(=O)(=O)N1CC2(CN(CC3CCOC3)C2)C1 (single isomer, unassigned) [Example 161] | 250 to 4000 nM |
| O=S(=O)(c1ccc(OC(F)F)cc1)N1CCOC2(CN(C3CCOCC3)C2)C1 [Example 1, 8-((4-(Difluoromethoxy)phenyl)sulfonyl)-2-(tetrahydro-2H-pyran-4-yl)-5-oxa-2,8-diazaspiro[3.5]nonane] | 250 to 4000 nM |
| Cn1nc(C(F)(F)F)cc1S(=O)(=O)N1CC2(CN(CC3(C)CCOCC3)C2)C1 [Example 72, 2-((1-methyl-3-(trifluoromethyl)-1H-pyrazol-5-yl)sulfonyl)-6-((4-methyltetrahydro-2H-pyran-4-yl)methyl)-2,6-diazaspiro[3.3]heptane] | 100 to 250 nM |
| Cc1nc(C(F)(F)F)ccc1S(=O)(=O)N1CC2(CN(C3CCC(F)(F)CC3)C2)C1 [Example 150] | < 100 nM |
| O=S(=O)(c1ccc(C2CC2)nc1C(F)(F)F)N1CC2(CN(C3CCOCC3)C2)C1 [Example 107, 2-((6-cyclopropyl-2-(trifluoromethyl)pyridin-3-yl)sulfonyl)-6-(tetrahydro-2H-pyran-4-yl)-2,6-diazaspiro[3.3]heptane] | < 100 nM |
| Cc1nc(C(F)(F)F)ccc1S(=O)(=O)N1CC2(CN(C(C)C3CCCOC3)C2)C1 (centres unmarked) [Example 137] | < 100 nM |
| Cc1cc(C(F)(F)F)nc(C)c1S(=O)(=O)N1CC2(CN(C3CC4(COC4)C3)C2)C1 [Example 101, 2-((2,4-dimethyl-6-(trifluoromethyl)pyridin-3-yl)sulfonyl)-6-(2-oxaspiro[3.3]heptan-6-yl)-2,6-diazaspiro[3.3]heptane] | 100 to 250 nM |
| O=S(=O)(c1ccc(C(F)(F)F)nc1C(F)(F)F)N1CC2(CN(C3CC4(COC4)C3)C2)C1 [Example 110] | 250 to 4000 nM |
| Cc1nc(C(F)(F)F)ccc1S(=O)(=O)N1CC2(CN(C(C)C3(C)CCOCC3)C2)C1 (centres unmarked) [Example 131] | 100 to 250 nM |
| Cc1nc(C(C)(C)F)ccc1S(=O)(=O)N1CC2(CN(C3CCOCC3)C2)C1 [Example 93, 2-((6-(2-fluoropropan-2-yl)-2-methylpyridin-3-yl)sulfonyl)-6-(tetrahydro-2H-pyran-4-yl)-2,6-diazaspiro[3.3]heptane] | < 100 nM |
| Cc1nc(C(F)(F)F)ccc1S(=O)(=O)N1CC2(CN(C3(C)CCOCC3)C2)C1 [Example 77, 2-((2-methyl-6-(trifluoromethyl)pyridin-3-yl)sulfonyl)-6-(4-methyltetrahydro-2H-pyran-4-yl)-2,6-diazaspiro[3.3]heptane] | < 100 nM |
| O=S(=O)(c1ccc(C(F)(F)F)nc1Cl)N1CC2(CN(C3CCOCC3)C2)C1 [Example 192, 2-((2-chloro-6-(trifluoromethyl)pyridin-3-yl)sulfonyl)-6-(tetrahydro-2H-pyran-4-yl)-2,6-diazaspiro[3.3]heptane] | < 100 nM |
| Cc1nc(C(F)F)ccc1S(=O)(=O)N1CC2(CN(C3CC4(COC4)C3)C2)C1 [Example 91, 2-((6-(difluoromethyl)-2-methylpyridin-3-yl)sulfonyl)-6-(2-oxaspiro[3.3]heptan-6-yl)-2,6-diazaspiro[3.3]heptane] | 250 to 4000 nM |

| Structure (SMILES) | IC50 |
| --- | --- |
| Cc1ncccc1S(=O)(=O)N1CC2(CN(C3CCOCC3)C2)C1 [Example 164, 2-((2-methylpyridin-3-yl)sulfonyl)-6-(tetrahydro-2H-pyran-4-yl)-2,6-diazaspiro[3.3]heptane] | 250 to 4000 nM |
| COc1ccc(S(=O)(=O)N2CCC3(CCN(C4CCOCC4)C3)CC2)c(C)n1 [Example 43] | < 100 nM |
| CC1(O)CCC(N2CC3(C2)CN(S(=O)(=O)c2cnc(C(F)(F)F)cc2C2CC2)C3)CC1 (single isomer, unassigned) [Example 124, 4-(6-((4-cyclopropyl-6-(trifluoromethyl)pyridin-3-yl)sulfonyl)-2,6-diazaspiro[3.3]heptan-2-yl)-1-methylcyclohexan-1-ol] | 100 to 250 nM |
| Cc1cc(C(F)(F)F)nc(C)c1S(=O)(=O)N1CC2(CN(C3CCOCC3)C2)C1 [Example 100, 2-((2,4-dimethyl-6-(trifluoromethyl)pyridin-3-yl)sulfonyl)-6-(tetrahydro-2H-pyran-4-yl)-2,6-diazaspiro[3.3]heptane] | < 100 nM |
| O=S(=O)(c1cnc(C(F)(F)F)cc1C1CC1)N1CC2(CN(CC3CCOCC3)C2)C1 [Example 122, 2-((4-cyclopropyl-6-(trifluoromethyl)pyridin-3-yl)sulfonyl)-6-((tetrahydro-2H-pyran-4-yl)methyl)-2,6-diazaspiro[3.3]heptane] | < 100 nM |
| O=S(=O)(c1cc(C(F)(F)F)nn1CC1CC1)N1CC2(CN(CC3CCOCC3)C2)C1 [Example 66, 2-((1-(cyclopropylmethyl)-3-(trifluoromethyl)-1H-pyrazol-5-yl)sulfonyl)-6-((tetrahydro-2H-pyran-4-yl)methyl)-2,6-diazaspiro[3.3]heptane] | 250 to 4000 nM |
| Cn1nc(C(F)(F)F)cc1S(=O)(=O)N1CC2(CN(CC3CCOCC3)C2)C1 [Example 202, 2-((1-methyl-3-(trifluoromethyl)-1H-pyrazol-5-yl)sulfonyl)-6-((tetrahydro-2H-pyran-4-yl)methyl)-2,6-diazaspiro[3.3]heptane] | < 100 nM |
| Cn1nc(C(F)(F)F)cc1S(=O)(=O)N1CC2(CN(C3(C)CCOCC3)C2)C1 [Example 76, 2-((1-methyl-3-(trifluoromethyl)-1H-pyrazol-5-yl)sulfonyl)-6-(4-methyltetrahydro-2H-pyran-4-yl)-2,6-diazaspiro[3.3]heptane] | < 100 nM |
| Cn1nc(C2CC2)cc1S(=O)(=O)N1CC2(CN(CC3CCOCC3)C2)C1 [Example 219, 2-((3-cyclopropyl-1-methyl-1H-pyrazol-5-yl)sulfonyl)-6-((tetrahydro-2H-pyran-4-yl)methyl)-2,6-diazaspiro[3.3]heptane] | 100 to 250 nM |
| Cc1nc(C(F)(F)F)ccc1S(=O)(=O)N1CC2(CN(CC3(C)CCOCC3)C2)C1 [Example 129, 2-((2-methyl-6-(trifluoromethyl)pyridin-3-yl)sulfonyl)-6-((4-methyltetrahydro-2H-pyran-4-yl)methyl)-2,6-diazaspiro[3.3]heptane] | < 100 nM |
| CCc1nc(C(F)F)ccc1S(=O)(=O)N1CC2(CN(C3CC4(COC4)C3)C2)C1 [Example 206, 2-((6-(difluoromethyl)-2-ethylpyridin-3-yl)sulfonyl)-6-(2-oxaspiro[3.3]heptan-6-yl)-2,6-diazaspiro[3.3]heptane] | 100 to 250 nM |
| Cc1nc(C(F)(F)F)ccc1S(=O)(=O)N1CC2(CN(CCOC(C)(C)C)C2)C1 [Example 185] | < 100 nM |
| Cc1nc(C(F)(F)F)ccc1S(=O)(=O)N1CC2(CN(C3CCOCC3C)C2)C1 (centres unmarked) [Example 145] | < 100 nM |
| Cc1cc(OC(F)(F)F)ccc1S(=O)(=O)N1CC2(CCN(C3CCOCC3)C2)C1 [Example 58] | < 100 nM |
| Cc1nn(C)c(S(=O)(=O)N2CC3(CN(C4CCOCC4)C3)C2)c1C(F)F [Example 49] | 100 to 250 nM |
| O=S(=O)(c1ccc(C(F)(F)F)nc1C(F)(F)F)N1CC2(CN(CC3CCOCC3)C2)C1 [Example 111] | < 100 nM |
| Cc1nc(C(F)(F)F)ccc1S(=O)(=O)N1CC2(CN(C(C)C3(C)COC3)C2)C1 (centres unmarked) [Example 132] | 100 to 250 nM |
| Cc1nc(C(C)(F)F)ccc1S(=O)(=O)N1CC2(CN(CC3COC3)C2)C1 [Example 87] | < 100 nM |
| Cn1nc(C(F)(F)F)cc1S(=O)(=O)N1CC2(CN(CC3CCOC(C)(C)C3)C2)C1 (single isomer, unassigned) [Example 199] | 100 to 250 nM |
| COCCC1(CN2CC3(C2)CN(S(=O)(=O)c2ccc(C(F)(F)F)nc2C)C3)CCC1 [Example 181] | 100 to 250 nM |
